Structures can show the parent of a compound that is named as a salt.
Tests used:
honeybees = assay: Test for Confirmation of Honeybee Repelling Effect 1, 2, 3 (feeding station with 40% sugar water); format: in vivo; conditions: for Corrected repelling rate (%) Honeybees: Test 3, 5 mL; for Corrected repelling rate R (%): honeybees; for honeybee repelling rate: Test 3, summary in text
Excerpt: The following were used as the test samples for Examples: 2% by weight per volume ethanol solutions of octane (a-1), tetradecane (a-2), heptadecane (a-3), nonadecane (a-4), 2-acetylfuran (b-1), 5-methyl-2-furaldehyde (b-2), furfural (b-3), furaneol (c-1), 2-acetylpyrrole (d-1), 1-benzylpyrrole (d-2), 1-octanol (e-1), 1-dodecanol (e-2), and 1-octadecanol (e-3), respectively; and 2% by weight per volume aqueous solutions of furfuryl alcohol (b-4), sotolon (c-2), and α-angelicalactone (c-3), respectively.
The following were used as the test samples for Comparative Examples: 2% by weight per volume ethanol solutions of eicosane (carbon number 20, p-1), heneicosane (carbon number 21, p-2), 2-methyloctane (branched alkane, p-3), tributyl o-acetylcitrate (p-4), and 1-methylpyrrole (p-5), respectively; and 2% by weight per volume aqueous solutions of 2-methyltetrahydrofuran-3-one (p-6) and acetic acid (p-7), respectively.
Ethanol alone and water alone were used as samples for correction.
The cotton pads 13 were impregnated with 40% sugar water (80 g), after which disposable wooden chopsticks 15 (80 mm in length) were placed over the cotton pads on the lid surface as “landing areas,” for use as “test insect (honeybee) feeding station 1” 10.
A nest box of test insects (honeybees) (1 colony: approx. 6,000 bees) was placed at the center of a glass hothouse (bottom face: 5 m×10 m, height (highest part): 3 m, temperature: 25° C.), and the aforementioned “test insect (honeybee) feeding station 1” was installed at a location 2 meters away from the nest box.
After confirming that at least five test insects (honeybees) were feeding at the above “test insect (honeybee) feeding station 1” installed in the hothouse, test 1 was conducted to measure the “approaching count (Mz)” and “landing count (My)” and calculate the “landing rate (Mx).”
Next, the “test insect (honeybee) feeding station 1” installed in the hothouse was replaced with each “test insect (honeybee) feeding station 2” which was let to stand still for 5 minutes, after which test 2 was conducted to measure the “approaching count (Nz)” and “landing count (Ny)” and calculate the “landing rate (Nx).”
Approaching count: Total number of times a honeybee has approached within 25 cm of the cotton wools at the feeding station during 5 minutes
Landing count: Total number of honeybees that have remained for at least 1 second on the cotton pads at the feeding station during 5 minutes
Landing rate (%): (Landing count/Approaching count)×100
The “repelling rate Q” and “corrected repelling rate R” were calculated from the above “landing rates” using the calculation formula below. For the “repelling rate of sample for correction” used to calculate the “corrected repelling rate R,” the repelling rate of each of the samples for correction above (ethanol alone or water alone being a solvent for the active ingredient) was used.
Repelling rate Q (%)={(Mx)−(Nx)}/(Mx)×100
Corrected repelling rate R (%)={Repelling rate of test sample−Repelling rate of sample for correction}/{100−Repelling rate of sample for correction}×100
The following were used as the test samples for Examples: 0.1% by weight per volume ethanol solutions of 3-methyl-2-butanol (e-4), carvacrol (x-1), isoeugenol (x-2), cinnamyl alcohol (x-3), diacetone alcohol (x-4), α-amylcinnamaldehyde (x-5), 3-methyl-2-butenal (x-6), valeraldehyde (x-7), ethyl cinnamate (x-8), methyl cinnamate (x-9), ethyl isovalerate (x-10), isoamyl formate (x-11), 5-ethyl-2-methylpyridine (x-12), 2-(3-phenylpropyl)pyridine (x-13), 2,6-dimethylpyridine (x-14), ß-ionone (x-15), 2-acetylthiazole (x-16), butylamine (x-17), and citronella oil (x-18), respectively; and a 0.1% by weight per volume aqueous solution of (3-amino-3-carboxypropyl)dimethylsulfonium chloride (x-19).

stink bugs = assay: Test for Confirmation of Stink Bug Behaviors against Active Ingredients 1, 2, 3 (treated filter paper); format: in vivo, southern green stink bugs
Excerpt: The test samples in “Test for Confirmation of Honeybee Repelling Effect 1” above were used.
A liquid calcium carbonate/ethanol dispersion was applied on the entire interior wall of a KP cup (100 mm in diameter×90 mm in height) and air-dried, after which a filter paper (90 mm in diameter) was fixed on the bottom face of the KP cup using double-sided tape. A different filter paper (90 mm in diameter) was cut along its diameter and the resulting semicircle-shaped paper was uniformly treated with 400 μL of each test sample or sample for correction, and then placed over the filter paper fixed on the aforementioned bottom face of the KP cup by allowing the circular parts to overlap, for use as a testing device.
The “repelling rate Y” and “corrected repelling rate Z” were calculated from the above “time A (sec)” and “time B (sec)” using the calculation formula below. For the “repelling rate of sample for correction” used to calculate the “corrected repelling rate Z,” the repelling rate of each of the samples for correction above (ethanol alone or water alone being a solvent for the active ingredient) was used.
Corrected repelling rate Z (%)={Repelling rate of test sample−Repelling rate of sample for correction}/{100−Repelling rate of sample for correction}×100
For the test samples, the test samples in “Test for Confirmation of Honeybee Repelling Effect 2” above were used.

[1] = 0.1% by weight per volume solution
[2] = Test 3, 0.1% by weight per volume solution, 400 μL
[3] = Test 2, 0.1% by weight per volume solution, 5 mL (active ingredient 5 mg)
[4] = Test 2, 0.1% by weight per volume solution, 400 μL
[5] = 2.0% by weight per volume solution
[6] = Test 1, 2% by weight per volume solution
[7] = Test 1, 2% by weight per volume solution, 5 mL sprayed (active ingredient 0.1 g)
[8] = Test 1, 2% by weight per volume solution, 400 μL on filter paper, 30 minutes

Row | Structure (SMILES) | Corrected repelling rate (%) Honeybees (honeybees; [1]) | repelling of stink bugs and other injurious insects to be exterminated (in words) (stink bugs) | Corrected repelling rate (%) Stinkbugs (stink bugs; [2]) | further results
1 | CCOC(=O)c1ccc(O)cc1 [y-17, ethyl 4-hydroxybenzoate] | 56.6% | not repelling stink bugs | ∘ | –
2 | CC(=O)/C=C/C1=C(C)CCCC1(C)C [x-15, ß-ionone] | – | – | – | Corrected repelling rate R (%) (honeybees; [3]): 83.7%; Corrected repelling rate (%) Stinkbugs (stink bugs; [4]): <0%
3 | c1cnccn1 [y-57, pyrazine] | 51.3% | not repelling stink bugs | ∘ | –
4 | C=CCOC(=O)Cc1ccccc1 [y-44, allyl phenylacetate] | 73.6% | not repelling stink bugs | ∘ | –
5 | CC(=O)OCCc1ccccc1 [y-20, phenethyl acetate] | 58.9% | not repelling stink bugs | ∘ | –
6 | CCCCCCCC1CCC(=O)O1 (centres unmarked) [y-63, γ-undecalactone] | – | not repelling stink bugs | – | –
7 | CCCCCC1CCCCC(=O)O1 (centres unmarked) [y-66, 6-undecanolactone] | 69.3% | not repelling stink bugs | ∘ | –
8 | COC(=O)C=Cc1ccccc1 [x-9, methyl cinnamate] | – | – | – | Corrected repelling rate R (%) (honeybees; [3]): 93.3%; Corrected repelling rate (%) Stinkbugs (stink bugs; [4]): <0%
9 | CCCC(=O)O [y-73, butyric acid] | 33.0% | – | ∘ | –
10 | Oc1cccc2nccnc12 [y-85, 5-hydroxyquinoxaline] | 71.5% | not repelling stink bugs | ∘ | –
11 | CCCCC=O [x-7, valeraldehyde] | – | – | – | Corrected repelling rate R (%) (honeybees; [3]): 50.7%; Corrected repelling rate (%) Stinkbugs (stink bugs; [4]): <0%
12 | COc1ccc(C(=O)O)cc1OC [y-75, 3,4-dimethoxybenzoic acid] | 70.6% | not repelling stink bugs | ∘ | –
13 | OCC=Cc1ccccc1 [x-3, cinnamyl alcohol] | – | – | – | Corrected repelling rate R (%) (honeybees; [3]): 98.2%; Corrected repelling rate (%) Stinkbugs (stink bugs; [4]): <0%
14 | C=CCOC(=O)CCC1CCCCC1 [y-43, allyl cyclohexanepropionate] | 90.4% | not repelling stink bugs | ∘ | –
15 | c1ccc(CCCc2ccccn2)cc1 [x-13, 2-(3-phenylpropyl)pyridine] | – | – | – | Corrected repelling rate R (%) (honeybees; [3]): 86.4%; Corrected repelling rate (%) Stinkbugs (stink bugs; [4]): <0%
16 | COc1ccc(C=O)cc1 [y-4, anisaldehyde] | 91.5% | – | – | Corrected repelling rate (%) Stinkbugs (stink bugs; 0.5 h, 0.1 % strength): x (“x” for rates “not <0”)
17 | CC(C)CCOC=O [x-11, isoamyl formate] | – | – | – | Corrected repelling rate R (%) (honeybees; [3]): 15.1%; Corrected repelling rate (%) Stinkbugs (stink bugs; [4]): <0%
18 | CCOC(=O)C=Cc1ccccc1 [x-8, ethyl cinnamate] | – | – | – | Corrected repelling rate R (%) (honeybees; [3]): 21.8%; Corrected repelling rate (%) Stinkbugs (stink bugs; [4]): <0%
19 | O=CC=Cc1ccccc1 [y-5, cinnamaldehyde] | 94.4% | not repelling stink bugs | ∘ | honeybee repelling rate (honeybees): ≥ 50%

Row | Structure (SMILES) | Corrected repelling rate (%) Honeybees (honeybees; [1]) | repelling of stink bugs and other injurious insects to be exterminated (in words) (stink bugs) | Corrected repelling rate (%) Stinkbugs (stink bugs; [2]) | further results
20 | Cc1cccc2ccccc12 [y-87, 1-methylnaphthalene] | 74.3% | not repelling stink bugs | ∘ | honeybee repelling rate (honeybees): ≥ 50%
21 | COc1cc(OC)cc(C(=O)O)c1 [y-76, 3,5-dimethoxybenzoic acid] | 22.1% | – | ∘ | –
22 | CCCC(=O)OCCC(C)C [y-51, isoamyl butyrate] | – | not repelling stink bugs | – | Corrected repelling rate (%) Honeybees (honeybees; [5]): 75.9%; Corrected repelling rate (%) Stinkbugs (stink bugs; Test 3, 2.0% by weight per volume solution, 400 μL): ∘
23 | CCCCCO [e-7, 1-pentanol] | 68.9% | not repelling stink bugs | ∘ | –
24 | CCCCN [x-17, butylamine] | – | – | – | Corrected repelling rate R (%) (honeybees; [3]): 83.4%; Corrected repelling rate (%) Stinkbugs (stink bugs; [4]): <0%
25 | CCOC(=O)CC(C)C [x-10, ethyl isovalerate] | – | – | – | Corrected repelling rate R (%) (honeybees; [3]): 61.0%; Corrected repelling rate (%) Stinkbugs (stink bugs; [4]): <0%
26 | CC1=CCC(=O)O1 [c-3, α-angelicalactone] | – | – | – | repelling effect / repelled behaviors of honeybees (in words) (honeybees; [6]): excellent repelling effect; Corrected repelling rate R (%) (honeybees; [7]): 31.7%; Corrected repelling rate (%) Stinkbugs (stink bugs; [8]): <0%
27 | CCCCCCC(=O)OCC [y-54, ethyl heptanoate] | 20.9% | – | ∘ | –
28 | CCCCCCCCCCCCCC [a-2, tetradecane] | – | – | – | repelling effect / repelled behaviors of honeybees (in words) (honeybees; [6]): excellent repelling effect; Corrected repelling rate R (%) (honeybees; [7]): 96.5%; Corrected repelling rate (%) Stinkbugs (stink bugs; [8]): <0%
29 | CCCCCCCCCCCC(=O)OCCCC [y-37, butyl laurate] | 33.0% | – | ∘ | –
30 | CCCCCCCC1CCCC(=O)O1 (centres unmarked) [y-65, δ-dodecalactone] | 86.6% | not repelling stink bugs | ∘ | –
31 | C=C(C)C1CC=C(C=O)CC1 (centres unmarked) [y-8, perillaldehyde] | 94.7% | – | – | Corrected repelling rate (%) Stinkbugs (stink bugs; 0.5 h, 0.1 % strength): x (“x” for rates “not <0”)
32 | CC(C)=CC=O [x-6, 3-methyl-2-butenal] | – | – | – | Corrected repelling rate R (%) (honeybees; [3]): 91.8%; Corrected repelling rate (%) Stinkbugs (stink bugs; [4]): <0%
33 | CC1(C)C2CCC1(C)C(O)C2 (centres unmarked) [y-1, borneol] | 80.0% | not repelling stink bugs | ∘ | –
34 | CCCCCC(=O)O [y-72, hexanoic acid] | 89.4% | – | – | –
35 | Cc1cccc2c(C)cccc12 [y-89, 1,5-dimethylnaphthalene] | 88.8% | – | – | –
36 | Cc1cnc(C)c(C)n1 [y-55, 2,3,5-trimethylpyrazine] | 80.6% | – | – | –
37 | CCCCCCC(C)C [p-3, 2-methyloctane, reference compound] | – | – | – | repelling effect / repelled behaviors of honeybees (in words) (honeybees; [6]): not observed at all; Corrected repelling rate R (%) (honeybees; [7]): <0%
38 | CSCCCO [y-3, methionol] | – | – | – | Corrected repelling rate (%) Honeybees (honeybees; [5]): 84.7%

Source: US20230210116A1, “HONEYBEE REPELLENT” (EARTH CORPORATION, priority 2020, published 2023)
